Results from patent US4460508A, “5-Diazacycloalkylimidazo[1,2-c][1,3]benzodiazepines” (Ciba-Geigy Corporation, priority 1982, dated 1984).

Tested on: α-adrenergic
Test: α-adrenergic blocking activity in vitro

`CN1CCN(C2=Nc3ccccc3Cc3nccn32)CC1` [example 1, 5-(4-methyl-1-piperazinyl)-11H-imidazo[1,2-c][1,3]benzodiazepine] was tested, and the α-adrenergic blocking activity was “only minimal”.
